From US20230107642A1 (Erasca, Inc., priority 2020, published 2023)

Assay: Determination of total drug concentration in rat brain (BBB penetration)
Assay type: in vivo
Conditions: male SD rat, 2 mg/kg IV infusion for 4 hours, brain collected at end of 4 hours
Protocol: BB. Example 9: Determination of Total Drug Concentration in Rat Brain
In Vivo Experimental Procedures
Infuse male SD rat at 2 mg/kg dose for 4 hours through IV administration route. Collect brain tissues at the end of 4 hours.
Sample Preparation Procedures
Dilute brain tissue by adding homogenization solvent (1:4, w/v). Homogenize diluted brain tissue samples. Extract analyte by adding organic solvent (1:4, v/v) with spiked internal standard. Vortex and centrifuge the samples. Remove supernatant and dilute with HPLC compatible solvent (1:3, v/v).
Inject diluted extract into LC-MS/MS system using reversed phase high performance liquid chromatography coupled with electrospray ionization and selected reaction monitoring. Determine the total drug concentration in brain samples by quantitating against the standard curve prepared using the same matrix.
The following data provides blood brain barrier (BBB) penetration activity for a selection of inventive compounds where were directly compared to sotorasib and adagrasib (concentration in brain measured in ng/g).
Compounds that were measured as having a total concentration in the brain of at least 60 ng/g are indicated as “+”.

| Structure (SMILES) | BBB activity |
| --- | --- |
| C=CC(=O)N1[C@H](C)CN(c2nc(=O)n3c4c(c(-c5cc(Cl)c(F)cc5F)c(C(F)(F)F)cc24)SC[C@@H]3CC2CCN(CC)CC2)C[C@@H]1C [Example 13-86] | − (Compounds that did not meet this threshold are indicated as “−”) |
| [2H]C1([2H])N(C(=O)C=C)C([2H])([2H])C([2H])([2H])N(c2nc(=O)n3c4c(c(-c5cc(Cl)c(F)cc5F)c(C(F)(F)F)cc24)SCC2(COC2)C3)C1([2H])[2H] [Example 13-54] | − (Compounds that did not meet this threshold are indicated as “−”) |
| C=CC(=O)C1[C@H](C)CN(c2nc(=O)n3c4c(c(-c5ccc(F)cc5)c(C(F)(F)F)cc24)SC[C@@H](OC)C3)C[C@@H]1C (stereo partly shown) [Example 13-66] | − (Compounds that did not meet this threshold are indicated as “−”) |
| C=CC(=O)N1C[C@H](C)N(c2nc(=O)n3c4c(c(-c5ccc(F)cc5)c(Cl)cc24)OCC3CN(C)C)C[C@H]1C (stereo partly shown) [Example 13-53] | − (Compounds that did not meet this threshold are indicated as “−”) |
| C=CC(=O)N1C[C@H](C)N(c2nc(=O)n3c4c(c(-c5ccc(F)cc5F)c(Cl)cc24)OCC3CN(C)C)C[C@H]1C (stereo partly shown) [Example 13-38] | + (Compounds that were measured as having a total concentration in the brain of at least 60 ng/g are indicated as “+”) |
| C=CC(=O)N1CCN(c2nc(=O)n3c4c(c(-c5cc(Cl)c(F)cc5F)c(C(F)(F)F)cc24)SC[C@@H]3CN2CCN(C3CC3)CC2)CC1 [Example 13-30] | + (Compounds that were measured as having a total concentration in the brain of at least 60 ng/g are indicated as “+”) |
| C=C(F)C(=O)N1[C@H](C)CN(c2nc(=O)n3c4c(c(-c5ccc(F)cc5)c(C(F)(F)F)cc24)SC[C@@H](OC)C3)C[C@@H]1C [Example 13-9] | + (Compounds that were measured as having a total concentration in the brain of at least 60 ng/g are indicated as “+”) |
| C=CC(=O)N1CCN(c2nc(=O)n3c4c(c(-c5cc(Cl)c(F)cc5F)c(Cl)cc24)SC[C@@H]3CN2CCN(C3CC3)CC2)[C@@H](C)C1 [Example 13-27] | + (Compounds that were measured as having a total concentration in the brain of at least 60 ng/g are indicated as “+”) |
| C=CC(=O)N1[C@H](C)CN(c2nc(=O)n3c4c(c(-c5cc(Cl)c(F)cc5F)c(C(F)(F)F)cc24)SC[C@@H](OC)C3)C[C@@H]1C (atropisomer, axis not shown) [Example 13-39] | + (Compounds that were measured as having a total concentration in the brain of at least 60 ng/g are indicated as “+”) |
| C=CC(=O)N1[C@H](C)CN(c2nc(=O)n3c4c(c(-c5ccc(F)cc5)c(C(F)(F)F)cc24)SC[C@@H]3COC)C[C@@H]1C [Example 13-10] | + (Compounds that were measured as having a total concentration in the brain of at least 60 ng/g are indicated as “+”) |
| C=CC(=O)N1[C@H](C)CN(c2nc(=O)n3c4c(c(-c5cc(I)c(F)cc5F)c(C(F)(F)F)cc24)SC[C@@H]3COC)C[C@@H]1C [Example 13-19] | + (Compounds that were measured as having a total concentration in the brain of at least 60 ng/g are indicated as “+”) |
| C=CC(=O)N1[C@H](C)CN(c2nc(=O)n3c4c(c(-c5ccc(F)cc5)c(C(F)(F)F)cc24)SCC(COC)(COC)C3)C[C@@H]1C [Example 13-89] | − (Compounds that did not meet this threshold are indicated as “−”) |
| C=CC(=O)N1C[C@H](C)N(c2nc(=O)n3c4c(c(-c5ccc(F)cc5F)c(C(F)(F)F)cc24)SCC2(COC2)C3)C[C@H]1C [Example 13-51] | − (Compounds that did not meet this threshold are indicated as “−”) |
| C=CC(=O)N1C[C@H](C)N(c2nc(=O)n3c4c(c(-c5cc(Br)c(F)cc5F)c(C(F)(F)F)cc24)SCC2(COC2)C3)C[C@H]1C [Example 13-23] | + (Compounds that were measured as having a total concentration in the brain of at least 60 ng/g are indicated as “+”) |
| C=CC(=O)N1[C@H](C)CN(c2nc(=O)n3c4c(c(-c5ccc(F)cc5)c(Cl)cc24)SC[C@@H](OC)C3)C[C@@H]1C [Example 13-69] | − (Compounds that did not meet this threshold are indicated as “−”) |
| C=CC(=O)N1[C@H](C)CN(c2nc(=O)n3c4c(c(-c5cc(Cl)c(F)cc5F)c(C(F)(F)F)cc24)SC[C@@H](OCC)C3)C[C@@H]1C (atropisomer, axis not shown) [Example 13-77] | − (Compounds that did not meet this threshold are indicated as “−”) |
| C=CC(=O)N1[C@H](C)CN(c2nc(=O)n3c4c(c(-c5cc(Cl)c(F)cc5F)c(C(F)(F)F)cc24)SC[C@@H]3CC)C[C@@H]1C (atropisomer, axis not shown) [Example 13-8] | + (Compounds that were measured as having a total concentration in the brain of at least 60 ng/g are indicated as “+”) |

| Structure (SMILES) | BBB activity |
| --- | --- |
| C=CC(=O)N1[C@H](C)CN(c2nc(=O)n3c4c(c(-c5ccc(F)cc5F)c(C(F)(F)F)cc24)SC[C@@H](OC)C3)C[C@@H]1C [Example 13-72] | − (Compounds that did not meet this threshold are indicated as “−”) |
| C=CC(=O)N1C[C@H](C)N(c2nc(=O)n3c4c(c(-c5ccc(F)cc5)c(C(F)(F)F)cc24)SCC2(COC2)C3)C[C@H]1C [Example 13-79] | − (Compounds that did not meet this threshold are indicated as “−”) |
| C=CC(=O)N1[C@H](C)CN(c2nc(=O)n3c4c(c(-c5ccc(F)cc5F)c(C(F)(F)F)cc24)SC[C@@H](OCC)C3)C[C@@H]1C (atropisomer, axis not shown) [Example 13-58] | − (Compounds that did not meet this threshold are indicated as “−”) |
| C=CC(=O)N1C[C@H](C)N(c2nc(=O)n3c4c(c(-c5ccc(F)cc5F)c(C(F)(F)F)cc24)SC[C@@H]3COC)C[C@H]1C (atropisomer, axis not shown) [Example 13-1] | + (Compounds that were measured as having a total concentration in the brain of at least 60 ng/g are indicated as “+”) |
| C=CC(=O)N1C[C@H](C)N(c2nc(=O)n3c4c(c(-c5cc(F)c(F)cc5F)c(C(F)(F)F)cc24)SC[C@@H]3CN2CCN(CC(F)F)CC2)C[C@H]1C [Example 13-57] | − (Compounds that did not meet this threshold are indicated as “−”) |
| C=CC(=O)N1[C@H](C)CN(c2nc(=O)n3c4c(c(-c5cc(Cl)c(F)cc5F)c(C(F)(F)F)cc24)SC[C@@H]3COC)C[C@@H]1C (atropisomer, axis not shown) [Example 13-2] | + (Compounds that were measured as having a total concentration in the brain of at least 60 ng/g are indicated as “+”) |
| C=CC(=O)N1[C@H](C)CN(c2nc(=O)n3c4c(c(-c5ccc(F)cc5F)c(C(F)(F)F)cc24)SC[C@@H]3COC)C[C@@H]1C [Example 13-13] | + (Compounds that were measured as having a total concentration in the brain of at least 60 ng/g are indicated as “+”) |
| C=CC(=O)N1C[C@H](C)N(c2nc(=O)n3c4c(c(-c5cc(Cl)c(F)cc5F)c(C(F)(F)F)cc24)SCC2(CCOCC2)C3)C[C@H]1C [Example 13-34] | + (Compounds that were measured as having a total concentration in the brain of at least 60 ng/g are indicated as “+”) |
| C=CC(=O)N1CCN(c2nc(=O)n3c4c(c(-c5cc(Cl)c(F)cc5F)c(C(F)(F)F)cc24)SC[C@@H]3COC)CC1 (atropisomer, axis not shown) [Example 13-7] | + (Compounds that were measured as having a total concentration in the brain of at least 60 ng/g are indicated as “+”) |
| C=CC(=O)N1C[C@H](C)N(c2nc(=O)n3c4c(c(-c5ccc(F)cc5F)c(C(F)(F)F)cc24)SC[C@@H]3CN2CCN(C3CC3)CC2)C[C@H]1C [Example 13-29] | + (Compounds that were measured as having a total concentration in the brain of at least 60 ng/g are indicated as “+”) |
| C=CC(=O)N1[C@H](C)CN(c2nc(=O)n3c4c(c(-c5ccc(F)cc5)c(C(F)(F)F)cc24)SC[C@@H](OCCF)C3)C[C@@H]1C [Example 13-64] | − (Compounds that did not meet this threshold are indicated as “−”) |
| C=CC(=O)N1[C@H](C)CN(c2nc(=O)n3c4c(c(-c5ccc(F)cc5F)c(C(F)(F)F)cc24)SC[C@@H](OCC)C3)C[C@@H]1C (atropisomer, axis not shown) [Example 13-52] | − (Compounds that did not meet this threshold are indicated as “−”) |
| C=CC(=O)N1[C@H](C)CN(c2nc(=O)n3c4c(c(-c5ccc(F)cc5)c(C(F)(F)F)cc24)SC[C@@H](OCC)C3)C[C@@H]1C [Example 13-55] | − (Compounds that did not meet this threshold are indicated as “−”) |
| C=CC(=O)N1[C@H](C)CN(c2nc(=O)n3c4c(c(-c5ccc(F)c(Cl)c5)c(C(F)(F)F)cc24)SC[C@@H](OCOC)C3)C[C@@H]1C [Example 13-78] | − (Compounds that did not meet this threshold are indicated as “−”) |
| C=CC(=O)N1[C@H](C)CN(c2nc(=O)n3c4c(c(-c5ccc(F)cc5)c(C(F)(F)F)cc24)SC[C@@H]3CN2CCN(C3CC3)CC2)C[C@@H]1C [Example 13-22] | + (Compounds that were measured as having a total concentration in the brain of at least 60 ng/g are indicated as “+”) |
| C=CC(=O)N1CC2C(=O)N(C)c3cnc4c(F)c(-c5c(O)cccc5F)c(Cl)cc4c3N2C[C@H]1C (stereo partly shown) [Example 13-32] | + (Compounds that were measured as having a total concentration in the brain of at least 60 ng/g are indicated as “+”) |
| C=CC(=O)N1CCN(c2nc(=O)n3c4c(c(-c5c(F)cc(F)c6ccccc56)c(Cl)cc24)SCC3)[C@@H](C)C1 [Example 13-67] | − (Compounds that did not meet this threshold are indicated as “−”) |
